In patent US20130296358A1, “3-SPIROCYCLIC PIPERIDINE DERIVATIVES AS GHRELIN RECEPTOR AGONISTS” (priority 2012, published 2013):

What was measured:
[1] = Aqueous solubility of crystalline L-malate salt forms versus free base; type: physicochemical; conditions: compared to the free base amorphous form
[2] = molecular target: T1, human recombinant ghrelin receptor (GHS-R1a) (Homo sapiens, UniProt Q92847); test: cAMP assay (HTRF), CHO-hGHS-R1a cells; type: cell-based; conditions: relative to the ghrelin response (defined as 100%)
T1 construct: host or cells: CHO-K1
Method: (§1) Chinese hamster ovary (CHO-K1) cells expressing human recombinant ghrelin receptor (GHS-R1a) were purchased from Euroscreen (ES-410-C) and propagated in UltraCHO medium containing glutamine and supplemented with 1% heat inactivated foetal calf serum (FCS), 100 U/ml penicillin, 100 mg/l streptomycin and 0.8 g/l geneticin. Cells were sub-cultured twice a week with a 1:10 dilution. For passaging, cells were washed with 1× DPBS without calcium and magnesium, trypsinised for 10 min with 0.05% Trypsin/EDTA and resuspended in cell culture medium.
The Homogeneous Time-Resolved Fluorescence (HTRF) cAMP dynamic 2 kit (Cisbio International, France) was used as follows. CHO-hGHS—R1a or CHO-rGHS—R1a cells were seeded in a volume of 25 μl culture media at 10,000 cells/well (400,000 cells/ml) in Greiner white 384-well high volume plates and incubated overnight (18-24 h) at 37° C./5% CO2. Then, media was removed and 6 μl assay buffer [HBSS, 10 mM Hepes, 0.2% (w/v) BSA, 1.7 mM IBMX, (pH7.4)] were added to the wells. To generate a dose response up to 30 μM, 10 mM compound stocks in 100% (v/v) DMSO were firstly diluted in 50% (v/v) DMSO followed by a further dilution into assay buffer. Then, 4 μl of 2.5× compound (dose response as 9 point log serial dilution in assay buffer from 30 μM as maximum concentration) were added to each well achieving a final DMSO assay concentration of 0.8% (v/v). 0.1 μM forskolin was added as positive control. After 30 min (rGHS—R1a cell line) or 60 min (hGHS—R1a cell line) incubation at 37° C./5% CO2, 5 μl of cAMP-d2 and 5 μl of anti-cAMP antibody-cryptate, (both made in lysis buffer), were added to the plate followed by 1 h incubation at RT. During this time, cAMP produced by the cells competed with cAMP-d2 for the anti-cAMP antibody-cryptate molecule. Then, the plate was read on the Pherastar instrument (BMG, Germany) at two different emission wavelengths ([…]). Increasing levels of endogenous cAMP produced by cells could be followed by a decrease of FRET fluorescent signal and viceversa. Values represented by a change in arbitrary fluorescence ratios (665/620) were converted into cAMP concentrations by using a standard curve, the reagents for which were supplied with the kit. EC50 values of agonists were calculated using the nonlinear logistic function of the Prism 5 software (GraphPad, USA). Emax were expressed as relative values of the ghrelin response, which was defined as 100%.

[3] = molecular target: T1, human recombinant ghrelin receptor (GHS-R1a); test: Calcium assay, CHO-K1 cells expressing hGHS-R1a (Fluo-4); type: cell-based; conditions: CHO-K1, relative to the Emax induced by MK-0677 (defined as 100%); read-out: hGHS-R1a Ca assay Emax/%
Method: as §1
Cells were diluted to achieve 1×10^6 cells/ml, seeded in 384-well black clear bottom CellBind plates at 25000 cells/well (25u1) and incubated overnight at 37° C./5% CO2 Cells were expected to be 85-90% confluent on the day of assay (checked under the microscope) to ensure a high quality assay. Media was manually removed and 40 μl of loading solution containing probenecid and Fluo-4 no wash dye (a calcium indicator, Invitrogen F36206) were added to each well. After 30 min at 37° C. followed by another 30 min at RT, cpds were added to the wells. To generate a dose response up to 30 μM, 10 mM compound stocks in 100% (v/v) DMSO were firstly diluted in 50% (v/v) DMSO. Then, serial dilutions aimed at a full logarithmic dose responses (8 point) were performed in assay buffer [1×HBSS, 20 mM Hepes, 0.1% (w/v) BSA] to give 2.5% (v/v) DMSO and 5× final compound concentrations. The final assay DMSO concentration was 0.5% (v/v). After loading the cells with Fluo-4 containing solution, plates were read on a CeIlLux instrument (Perkin Elmer). A protocol set up to add 10 μl of 5× compound and to read the plate for 60sec after adding the compound at 17th sec was used. Fluorescence excitation took place at 494 nm and emission at 516 nm. EC50 values of agonists were calculated by fitting the percent stimulation over background [(Max-Min)/Min] using the nonlinear logistic function of the Prism 5 software (GraphPad, USA).

rat fundus = test: Rat fundus contractility assay (EFS-induced contraction of muscle strips); conditions: for Emax: relative to the response to ghrelin (100 nM), defined as 100%; for EC50: increase of EFS-induced contraction, mean of preparations from at least 3 animals
Method: Male Sprague Dawley rats (180-250 g) were culled by cervical dislocation and the fundus was removed. Each fundus was placed on a Krebs Henseleit (KH) buffer soaked dissection dish and cut along the long curvature to form a flattened sheet that was pinned in each corner. Four adjacent longitudinal strips (10×3 mm) were cut and the mucosa removed by sharp dissection. Each muscle strip was mounted in a 10 ml organ bath containing oxygenated KH at 37° C. Each strip was connected to an isometric force transducer, calibrated initially using a 5 g weight. The signal (g tension) was amplified and responses recorded by a Powerlab data capture system, connected to a computer running Labchart software (version 5.0). Tissues were placed under 1 g tension for an equilibration period of 30 min or until the baseline tension had stabilised. Carbachol (CCh, 100 nM) was then administered to establish the maximum contractile response of each preparation. Tissues were washed thoroughly and left for 30 min to re-equilibrate. Next, the muscle strips underwent electrical field stimulation (EFS). Maximal EFS pulse trains of 12V, 5 Hz, 0.1 msec pulse width, for 2 sec every 60 sec were applied until consistent electrically-stimulated phasic contractions were recorded. The voltage was then reduced in 1V increments until a consistent submaximal (EC50-75) EFS response was observed. Ghrelin (100 nM) was administered and left until a maximum response was obtained. Tissues were then washed thoroughly and left for 30 min. Once the EFS-induced contraction had re-stabilised, cumulative additions (10 nM-10 μM) of each test compound were administered. Individual responses were calculated by determining the peak of the EFS-induced contraction minus the baseline. […] The mean EC50 value for compounds was generated from data obtained on stomach preparations from at least 3 different animals.

T1 sequence (Q92847 whole entry): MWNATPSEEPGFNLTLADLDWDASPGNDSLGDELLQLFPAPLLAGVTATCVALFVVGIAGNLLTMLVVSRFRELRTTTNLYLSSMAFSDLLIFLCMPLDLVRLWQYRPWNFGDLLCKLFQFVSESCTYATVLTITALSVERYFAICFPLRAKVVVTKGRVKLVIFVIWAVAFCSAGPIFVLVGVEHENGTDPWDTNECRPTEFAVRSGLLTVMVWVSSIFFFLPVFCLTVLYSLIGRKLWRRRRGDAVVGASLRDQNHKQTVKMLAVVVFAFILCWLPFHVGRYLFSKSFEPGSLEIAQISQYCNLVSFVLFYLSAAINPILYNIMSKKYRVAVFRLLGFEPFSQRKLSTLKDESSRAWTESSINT

Structure (SMILES) | aqueous solubility [1] | Emax [2] | Emax [3] | Emax (rat fundus; Rattus norvegicus) | EC50 (rat fundus) | EC50 (rat fundus; Rattus norvegicus)
CN1C[C@@H](c2ccc(F)cc2)[C@@]2(CCCN(C(=O)[C@@H](COCc3ccccc3)NC(=O)C(C)(C)N)C2)C1=O.O=C(O)C[C@H](O)C(=O)O [2-amino-N-((2R)-3-(benzyloxy)-1-((4S,5R)-4-(4-fluorophenyl)-2-methyl-1-oxo-2,7-diazaspiro[4.5]decan-7-yl)-1-oxopropan-2-yl)-2-methylpropanamide L-malate salt] | increased aqueous solubility |  |  |  |  | 
Cc1ccc(C2CN(C)C(=O)C23CCCN(C(=O)[C@@H](COCc2ccccc2)NC(=O)C(C)(C)N)C3)cc1.O=C(O)C[C@H](O)C(=O)O (stereo partly drawn) [2-amino-N-((2R)-3-(benzyloxy)-1-(2-methyl-1-oxo-4-p-tolyl-2,7-diazaspiro[4.5]decan-7-yl)-1-oxopropan-2-yl)-2-methylpropanamide L-malate salt] | increased aqueous solubility |  |  |  |  | 
CN1C(=O)C2(CCCN(C(=O)[C@@H](COCc3ccccc3)NC(=O)C(C)(C)N)C2)C1c1ccccc1 (single isomer, unassigned) [Example 2.0(ii)] |  | 193% | 99% | 63% | 17 nM | 
CN1C[C@H](c2ccccc2)[C@]2(CCCN(C(=O)[C@@H](COCc3ccccc3)NC(=O)C(C)(C)N)C2)C1=O (single isomer, unassigned) [Example 1.0(i)] |  | 130% | 97% | 104% |  | 1700 nM
C[C@H](OCc1ccccc1)[C@@H](NC(=O)C(C)(C)N)C(=O)N1CCCC2(C1)C(=O)N(C)CC2c1ccccc1 (single isomer, unassigned) [Example 1.34] |  | 168% | 107% | 115% |  | 68 nM
CN1C[C@@H](c2ccc(F)cc2)[C@@]2(CCCN(C(=O)[C@@H](COCc3ccccc3)NC(=O)C(C)(C)N)C2)C1=O [Example 1.2, 2-Amino-N-((2R)-3-(benzyloxy)-1-((4S,5R)-4-(4-fluorophenyl)-2-methyl-1-oxo-2,7-diazaspiro[4.5]decan-7-yl)-1-oxopropan-2-yl)-2-methylpropanamide] |  | 197% | 89% | 100% |  | 7.5 nM
CN1C[C@@H](c2ccccc2)[C@@]2(CCCN(C(=O)[C@@H](COCc3ccccc3)NC(=O)C(C)(C)N)C2)C1=O.O=C(O)C[C@H](O)C(=O)O [2-Amino-N—[(R)-1-benzyloxymethyl-2-((4S,5R)-2-methyl-1-oxo-4-phenyl-2,7-diaza-spiro[4.5]dec-7-yl)-2-oxo-ethyl]-2-methyl-propionamide L-malate salt] | increased aqueous solubility |  |  |  |  | 
